# Measured values reported in patent US5861481A, “Peptide lung surfactants and therapeutic combinations” (Merrell Pharmaceuticals Inc., priority 1997, dated 1999).
# Tested on: adult rat lavaged lungs
# Assay: Isolated rat lavaged lung model (pressure-volume curves)
# Protocol: Preparation of Artificial Surfactants. For triplicate samples of the synthetic lung surfactants 75 mg of DPPC (L-α-dipalmitoylphosphatidylcholine; >99% pure; Avanti Polar Lipids, Birmingham, Ala.) in 1 ml of chloroform were dried under a stream of nitrogen and placed in a lyophilizer overnight to remove traces of organic solvent. To the dry lipid mixture were added 9 ml of water. The preparation was incubated for 1 hr at 45°-50° C. with occasional vortexing. Then, in some samples, […] of dry test peptide were added to the aqueous preparation. The preparations were mildly sonicated with and without peptide in a cleaning bath sonicator (Branson 1200) at 45°-50° C. for 2 h to promote peptide dispersion and peptide-lipid interactions. The resulting lipid-peptide mixtures were divided into three parts, lyophilized and stored at -20° C.
# The experimental procedures for animal preparation, pressure-volume curve registration and lung lavage have been described by the rat lung model (Ikegami, et al., (1979) Pediatr. Res. 13, 777-780) as modified by McLean et al., Am. J. Physiol. (1992), L292-L300. Briefly, the lungs of adult rats were suspended in 0.9% saline at 37° C. were connected to a water manometer and an air-filled syringe by a T-tube. The deflation limb of a pressure-volume curve was recorded prior to lavage, after extensive lavage with 0.9% NaCl, 10 mM HEPES, pH 7.4 and after administration of surfactant mixtures in 2 ml of 0.9% NaCl, 10 mM HEPES buffer, pH 7.40. The deflation limbs of the pressure-volume (P-V) curves in adult rat lungs were analyzed by calculating the total lung capacities (% TLC) at 5 and 10 cm H2 O pressure (PC5 and PC10). The per cent of total lung capacities at 5 and 10 cm of H2 O (PC5 and PC10) were measured after addition of the synthetic lung surfactants to adult rat lavaged lungs at a dose of 25 mg of lipid (32 umoles) and 1 mg of peptide. Restorations are based on PC5. […] Comparisons were based on restoration,i.e. for PC5, ([…])×100%/(PC5.sbsb.(sufficient) -PC5.sbsb.(deficient)) and made by one-way analysis of variance using the GLM procedure with specific contrasts of the means (SAS Institute Inc., Cary, N.C.).
# References, consisting of DPPC alone and dog lung surfactant, respectively,were employed as reference standards: Reference I was prepared as follows. DPPC was purchased from Avanti Polar Lipids. 25 mg of DPPC in chloroform was dried under a stream of nitrogen and lyophilized to remove traces of organic solvent. To the dry lipid mixture was added 3 ml of water. The preparation was incubated at 45° C. for 1 hour with ultrasonication in a bath sonicator. The lipid was lyophilized, stored at 4° C. for up to one week and mixed with 9 ml of 0.9% NaCl, 20 mM HEPES buffer, pH 7.40. […]
# [1] = deflation limb of P-V curve, adult rat lavaged lungs, dose 25 mg lipid and 1 mg peptide, mean ± S.E.
smiles,measurement,setting,value
"CCCCCCCCCCCCCCCC(=O)OC[C@H](COP(=O)([O-])OCC[N+](C)(C)C)OC(=O)CCCCCCCCCCCCCCC [Reference I, L-α-dipalmitoylphosphatidylcholine]",effect on improving the compliance of the rat lung,"adult rat lung model, stated in words",no effect
same,Restoration (%),"based on PC5 relative to sufficient and deficient lungs, mean ± S.E.",-11 ± 8%
same,"PC5 (% TLC), per cent of total lung capacity at 5 cm H2O",[1],13 ± 1 % TLC
same,"PC10 (% TLC), per cent of total lung capacity at 10 cm H2O",[1],31 ± 2 % TLC
